# Data published in patent publication US20120263849A1, “BITTERNESS SUPPRESSION METHOD” (KAO CORPORATION, priority 2010, published 2012).
# Assay: Sensory test of bitterness, agent added to quinine sulfate standard solutions
# Assay type: in vivo, people
# Conditions: summary of Tables 2 to 4 (quinine sulfate and catechin test solutions)
# Description: The bitterness suppression agent of the present invention may be applied to any substance without any particular limitation as long as the substance contains a bitter component. It is preferably applied to a composition having a bitterness having a bitterness intensity of 7 or less based on the quinine sulfate standard solution. […] More specifically, the bitterness intensity is determined by the following procedure. […] Then, the values of bitterness intensity determined by each subject are averaged out and provided as the bitterness intensity of the test substance. […]
# Five subjects conducted a sensory test with reference to the bitterness level of each test solution using the quinine sulfate standard solutions shown in the following Table 1 as a standard, and an average score of the evaluation scores submitted by each subject was calculated. […]
smiles,measurement,value
COC(=O)c1ccccc1O [methyl salicylate],Suppression of bitterness (summary in words),effective suppression of bitterness without impairing the original taste and flavor
